These results are taken from patent US9567336B2, “Conjugated TLR7 and/or TLR8 and TLR2 agonists” (CAYLA, priority 2012, dated 2017).

One assay has as its target T1, murine TLR2 (Mus musculus, UniProt Q9QUN7).
T1 construct: host or cells: HEK293 (HEK-Blue mTLR2)
Nature of the assay: HEK-Blue mTLR2 NF-κB/AP-1 SEAP reporter cell assay. The format is cell-based. As to conditions: HEK-Blue mTLR2 reporter cells, 10 μg/mL to 10 pg/ml, 24 hours, OD at 655 nm; FIG. 4. The method, then:
(§1) Some conjugated compounds of the invention were tested for their ability to activate TLR7 and TLR2 receptor signaling. Cell-based assays were carried out using TLR7 and TLR2 reporter cell lines (InvivoGen). The reporter cell lines are engineered HEK293 cells, a human embryonic kidney cell line (ATCC, CRL-1573) that stably express either murine TLR7 (HEK-Blue™ mTLR7) or human TLR7 (HEK-Blue™ hTLR7) or murine TLR2 (HEK-Blue™ mTLR2) or human TLR2 (HEK-Blue™ hTLR2) with an NF-κB-inducible secreted embryonic alkaline phosphatase (SEAP) as the reporter gene. The SEAP reporter gene is placed under the control of the NF-κB and AP-inducible promoter. Stimulation with the corresponding TLR ligand activates NF-κB and AP-1, which induces the production of SEAP. Detection of SEAP is measured following culturing cells in HEK-Blue™ Detection media (InvivoGen). HEK-Blue™ Detection contains a SEAP substrate, which upon hydrolysis by SEAP produces a colorimetric change allowing for detection of SEAP as the protein is secreted. […] These assays were carried out using RAW-Blue™ Cells (InvivoGen), derived from RAW 264.7 mouse leukemic monocytic macrophage cell line (ATCC, CRL 2278) stably overexpressing a NF-κB/AP-1 inducible SEAP reporter constructs.
(§2) To perform the assay, cells were seeded on 96 well microliter plates at 50,000 or 100,000 cells per well for HEK-Blue™ Cells and RAW-Blue™ Cells respectively, and cultured at 37° C. in the presence of the conjugated compounds. The conjugated compounds were prepared as follows: First, stock solutions of the small molecule conjugated compounds of the invention were prepared in ethanol or water to a concentration of 10 mg/ml. A working dilution of the conjugated TLR7-TLR2 small molecules was made up in water and added to cells at a final range of concentrations from 10 μg/mL to 10 pg/ml. The working dilutions of the conjugated TLR7-TLR2 small molecules as the stated concentrations were directly added to the reporter cell lines and incubated at 37° C. for 24 hours. After 24 hours of incubation, the effect on reporter gene activity was determined by reading the OD at 655 nm using iMark™ Microplate Reader (BIO-RAD).
(§3) The conjugated compounds were tested alone for their ability to specifically activate TLR7 and TLR2, alongside the known TLR7 activators R848 or CL264 (InvivoGen) and the TLR2 agonists Pam2CSK4 or Pam3CSK4 (InvivoGen). The specificity of the TLR activity was determined by use of reporter cell lines to the other TLRs (data not shown). […] The molecules show a tendency to activate mouse TLR7 with greater sensitivity than human TLR7. […] Furthermore, dose-dependent responses of the conjugated compounds indicate significant TLR activities of TLR7 and TLR2 compared to the corresponding controls.

The test system of assay [1] is NF-κB in RAW-Blue™ Cells (RAW 264.7, endogenous TLR7 and TLR2). Nature of the assay: RAW-Blue Cells NF-κB/AP-1 inducible SEAP reporter assay. The assay is classed as cell-based, mouse. The note with it: murine monocytic macrophage cell line RAW 264.7, 24 hours, OD at 655 nm; FIGS. 5A, 5B. The method, then: as §1, §2, §3
A general note: Reporter assays use an easily measured gene product as a stand-in for the process of interest.

The target in another assay is T2, human TLR7 (Homo sapiens, UniProt Q9NYK1).
T2 construct: host or cells: HEK293 (HEK-Blue hTLR7)
T2 sequence (Q9NYK1 27-1049): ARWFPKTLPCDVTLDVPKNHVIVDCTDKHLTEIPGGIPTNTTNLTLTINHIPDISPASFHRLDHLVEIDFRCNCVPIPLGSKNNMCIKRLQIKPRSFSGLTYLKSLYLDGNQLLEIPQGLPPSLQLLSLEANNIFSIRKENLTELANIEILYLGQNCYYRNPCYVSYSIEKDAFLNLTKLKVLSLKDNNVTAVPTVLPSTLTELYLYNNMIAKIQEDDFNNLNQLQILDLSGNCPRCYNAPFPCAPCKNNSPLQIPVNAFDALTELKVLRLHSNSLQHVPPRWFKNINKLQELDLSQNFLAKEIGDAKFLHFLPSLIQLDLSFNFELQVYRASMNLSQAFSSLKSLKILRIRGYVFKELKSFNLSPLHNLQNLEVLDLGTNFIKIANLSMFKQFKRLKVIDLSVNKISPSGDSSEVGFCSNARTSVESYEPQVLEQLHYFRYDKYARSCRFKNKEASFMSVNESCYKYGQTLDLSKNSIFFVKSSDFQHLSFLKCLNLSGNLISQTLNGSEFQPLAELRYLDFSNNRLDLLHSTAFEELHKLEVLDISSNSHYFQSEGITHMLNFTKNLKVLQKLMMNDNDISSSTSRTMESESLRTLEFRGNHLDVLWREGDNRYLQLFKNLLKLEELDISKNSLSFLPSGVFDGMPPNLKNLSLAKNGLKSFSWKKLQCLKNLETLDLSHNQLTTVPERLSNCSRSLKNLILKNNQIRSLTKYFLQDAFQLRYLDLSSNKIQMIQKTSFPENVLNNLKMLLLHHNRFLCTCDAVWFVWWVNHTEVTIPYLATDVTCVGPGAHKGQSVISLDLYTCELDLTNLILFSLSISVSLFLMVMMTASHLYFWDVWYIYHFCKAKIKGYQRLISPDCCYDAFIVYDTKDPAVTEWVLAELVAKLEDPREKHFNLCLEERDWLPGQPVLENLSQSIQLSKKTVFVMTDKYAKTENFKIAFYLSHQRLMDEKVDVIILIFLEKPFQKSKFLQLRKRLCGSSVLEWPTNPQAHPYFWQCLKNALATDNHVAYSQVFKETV
In words: HEK-Blue hTLR7 NF-κB/AP-1 SEAP reporter cell assay. The assay is classed as cell-based. As to conditions: HEK-Blue hTLR7 reporter cells, 10 μg/mL to 10 pg/ml, 24 hours, OD at 655 nm; FIGS. 1A, 1B. The procedure: as §1, §2, §3

A further assay has as its target T3, human TLR2 (Homo sapiens, UniProt O60603).
T3 construct: host or cells: HEK293 (HEK-Blue hTLR2)
In words: HEK-Blue hTLR2 NF-κB/AP-1 SEAP reporter cell assay. The format is cell-based. The note with it: HEK-Blue hTLR2 reporter cells, 10 μg/mL to 10 pg/ml, 24 hours, OD at 655 nm; FIGS. 3A, 3B. The procedure: as §1, §2, §3

In the next assay the target is T4, murine TLR7 (Mus musculus, UniProt P58681).
T4 construct: host or cells: HEK293 (HEK-Blue mTLR7)
T4 sequence (P58681 27-1050): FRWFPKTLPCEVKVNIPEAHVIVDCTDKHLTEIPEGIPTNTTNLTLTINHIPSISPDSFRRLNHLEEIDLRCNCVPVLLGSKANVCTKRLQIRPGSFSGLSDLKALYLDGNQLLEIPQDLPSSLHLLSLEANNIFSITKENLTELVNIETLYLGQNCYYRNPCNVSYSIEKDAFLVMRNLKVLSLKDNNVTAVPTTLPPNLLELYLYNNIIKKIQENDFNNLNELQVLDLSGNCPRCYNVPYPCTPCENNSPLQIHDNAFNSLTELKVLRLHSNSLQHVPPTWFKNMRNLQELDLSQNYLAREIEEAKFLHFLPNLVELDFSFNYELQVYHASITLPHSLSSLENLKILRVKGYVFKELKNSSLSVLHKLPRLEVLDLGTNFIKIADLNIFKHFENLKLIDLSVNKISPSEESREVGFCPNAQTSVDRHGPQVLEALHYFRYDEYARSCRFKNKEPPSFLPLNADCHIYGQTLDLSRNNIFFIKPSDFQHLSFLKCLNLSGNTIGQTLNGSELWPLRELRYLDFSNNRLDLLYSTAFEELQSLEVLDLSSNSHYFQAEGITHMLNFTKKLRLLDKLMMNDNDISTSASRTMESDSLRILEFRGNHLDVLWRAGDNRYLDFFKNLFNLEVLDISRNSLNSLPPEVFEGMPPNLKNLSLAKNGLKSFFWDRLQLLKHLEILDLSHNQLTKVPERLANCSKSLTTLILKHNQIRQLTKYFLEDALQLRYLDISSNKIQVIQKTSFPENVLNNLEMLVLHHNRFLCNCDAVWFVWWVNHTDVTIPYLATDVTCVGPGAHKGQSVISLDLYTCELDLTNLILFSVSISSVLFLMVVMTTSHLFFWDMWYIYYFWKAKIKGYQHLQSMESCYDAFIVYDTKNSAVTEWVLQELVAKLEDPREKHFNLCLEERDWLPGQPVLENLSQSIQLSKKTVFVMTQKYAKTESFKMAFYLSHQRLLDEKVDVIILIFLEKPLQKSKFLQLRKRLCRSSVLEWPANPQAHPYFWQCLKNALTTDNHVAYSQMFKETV
Nature of the assay: HEK-Blue mTLR7 NF-κB/AP-1 SEAP reporter cell assay. The format is cell-based. As to conditions: HEK-Blue mTLR7 reporter cells, 10 μg/mL to 10 pg/ml, 24 hours, OD at 655 nm; FIGS. 2A, 2B. The procedure:
as §1, §2, §3

T3 sequence (O60603 21-784): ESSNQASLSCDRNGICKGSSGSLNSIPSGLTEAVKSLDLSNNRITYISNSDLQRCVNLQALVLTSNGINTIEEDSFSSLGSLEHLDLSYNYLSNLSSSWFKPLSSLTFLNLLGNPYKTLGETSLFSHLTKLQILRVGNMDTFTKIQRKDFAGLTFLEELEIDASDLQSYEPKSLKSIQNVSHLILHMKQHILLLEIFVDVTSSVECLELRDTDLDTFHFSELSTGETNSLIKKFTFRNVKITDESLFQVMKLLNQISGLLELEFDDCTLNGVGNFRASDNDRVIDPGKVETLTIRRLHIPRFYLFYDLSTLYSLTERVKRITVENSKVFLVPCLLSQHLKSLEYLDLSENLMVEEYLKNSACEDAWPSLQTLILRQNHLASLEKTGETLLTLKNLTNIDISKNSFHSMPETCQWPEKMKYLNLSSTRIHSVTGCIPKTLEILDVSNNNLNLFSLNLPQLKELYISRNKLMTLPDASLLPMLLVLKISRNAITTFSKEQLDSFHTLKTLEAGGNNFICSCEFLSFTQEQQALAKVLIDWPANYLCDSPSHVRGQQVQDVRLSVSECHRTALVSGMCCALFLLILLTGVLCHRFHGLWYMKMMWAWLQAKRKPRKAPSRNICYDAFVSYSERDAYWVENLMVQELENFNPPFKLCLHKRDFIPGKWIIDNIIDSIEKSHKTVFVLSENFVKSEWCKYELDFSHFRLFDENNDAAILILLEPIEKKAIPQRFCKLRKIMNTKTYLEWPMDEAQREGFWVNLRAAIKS
T1 sequence (Q9QUN7 25-784): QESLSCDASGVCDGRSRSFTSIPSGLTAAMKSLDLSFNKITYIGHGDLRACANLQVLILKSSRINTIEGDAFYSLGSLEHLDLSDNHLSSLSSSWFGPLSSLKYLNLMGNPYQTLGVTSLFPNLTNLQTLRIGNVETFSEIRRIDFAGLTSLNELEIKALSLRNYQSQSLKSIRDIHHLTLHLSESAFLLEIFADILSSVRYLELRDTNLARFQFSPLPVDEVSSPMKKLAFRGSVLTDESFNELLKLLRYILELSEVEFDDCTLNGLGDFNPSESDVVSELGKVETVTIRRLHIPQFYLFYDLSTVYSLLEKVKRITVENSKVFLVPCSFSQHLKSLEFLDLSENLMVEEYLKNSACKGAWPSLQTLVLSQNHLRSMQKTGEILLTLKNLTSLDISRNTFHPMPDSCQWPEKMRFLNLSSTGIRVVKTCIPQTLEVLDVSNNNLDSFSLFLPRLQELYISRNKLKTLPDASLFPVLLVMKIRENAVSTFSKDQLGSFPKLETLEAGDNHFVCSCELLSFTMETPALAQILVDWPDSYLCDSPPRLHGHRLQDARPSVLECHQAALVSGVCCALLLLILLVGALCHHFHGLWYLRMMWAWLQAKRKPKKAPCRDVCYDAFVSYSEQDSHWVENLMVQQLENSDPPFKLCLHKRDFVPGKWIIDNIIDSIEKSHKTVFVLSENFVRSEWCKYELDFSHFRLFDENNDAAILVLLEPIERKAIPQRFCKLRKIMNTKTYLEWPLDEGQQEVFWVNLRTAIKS

Take `CCCCCCCCCCCCCC(=O)OCCSC[C@H](N)C(=O)N[C@@H](CO)C(=O)Nc1ccc(Cn2c(O)nc3c(N)nc(NCCCC)nc32)cc1` [CL558, 2-((R)-2-amino-3-((S)-1-(4-((6-amino-2-(butylamino)-8-hydroxy-9H-purin-9-yl)methyl)phenylamino)-3-hydroxy-1-oxopropan-2-ylamino)-3-oxopropylthio)ethyltetradecanoate]: the “ability to activate TLR2 receptor (murine TLR2)” value (“ability … (murine TLR2)” below) at murine TLR2 was “activate TLR2 receptor”. In addition, in assay [1], the “induction of NF-κB in RAW-Blue cells” value is given as “activate NF-κB”. In addition, on human TLR7, the “ability to activate TLR7 receptors (human TLR7)” value (shortened to “ability … (human TLR7)”) is “activate TLR7 receptors”. In addition, the “ability to activate TLR2 receptor (human TLR2)” value (from here on “ability … (human TLR2)”) at human TLR2 is “activate TLR2 receptor”. The “ability to activate TLR7 receptors (murine TLR7)” value (shortened to “ability … (murine TLR7)”) at murine TLR7 is reported as “activate TLR7 receptors”.
In the case of `CCCCCCCCCCCCCCCC(=O)OCCSC[C@H](N)C(=O)Nc1ccc(Cn2c(O)nc3c(N)nc(NCCCC)nc32)cc1` [CL556, (R)-2-(2-amino-3-(4-((6-amino-2-(butylamino)-8-hydroxy-9H-purin-9-yl)methyl)phenylamino)-3-oxopropylthio)ethyl palmitate], the “ability … (murine TLR2)” value on murine TLR2 is listed as “activate TLR2 receptor”. Besides, in assay [1], the “induction of NF-κB in RAW-Blue cells” value is “activate NF-κB”. On human TLR7, the “ability … (human TLR7)” value was “activate TLR7 receptors”. Besides, the “ability … (human TLR2)” value on human TLR2 is listed as “activate TLR2 receptor”. In addition, on murine TLR7, the “ability … (murine TLR7)” value is given as “activate TLR7 receptors”.
As to `CCCCCCCCCCCCCCCC(=O)OCCSC[C@H](N)C(=O)N[C@@H](CO)C(=O)Nc1ccc(Cn2c(O)nc3c(N)nc(NCCCC)nc32)cc1` [CL559, 2-((R)-2-amino-3-((S)-1-(4-((6-amino-2-(butylamino)-8-hydroxy-9H-purin-9-yl)methyl)phenylamino)-3-hydroxy-1-oxopropan-2-ylamino)-3-oxopropylthio)ethyl palmitate], the “ability … (murine TLR2)” value on murine TLR2 was “activate TLR2 receptor”. In addition, the “induction of NF-κB in RAW-Blue cells” value in assay [1] is on record as “activate NF-κB”. Besides, at human TLR7, the “ability … (human TLR7)” value is “activate TLR7 receptors”. Besides, at human TLR2, the “ability … (human TLR2)” value is “activate TLR2 receptor”. On murine TLR7, the “ability … (murine TLR7)” value was “activate TLR7 receptors”.
